According to US20160095842A1 (priority 2013, published 2016):
Values joined by “and” are separate entries in the source; they are usually repeats but may differ in a detail not shown here. Equal entries are not always repeated. “Also recorded” adds a separate entry of the source.

What was measured:
[1] = tested on: RT112 urinary bladder carcinoma; test: Antitumor activity against s.c. RT112 tumors in nude mice; format: in vivo, female Hsd: Athymic Nude-nu mice; conditions: for Mean change of tumor volume / Final Tumor Volume: Clarke 1997 analysis table; for Final Tumor Volume: end of 14 days treatment, in mm³ (unit assumed)
Protocol: Animals: Experiments are performed in female Hsd: Athymic Nude-nu mice obtained from Harlan Cpb, Germany. Animals are from 8 to 14 weeks of age at treatment start and are housed under Optimized Hygienic Conditions in Makrolon type III cages (max. 10 animals per cage) with free access to food and water
Establishment of RT112 tumors: The RT112 human urinary bladder carcinoma cell line was initially derived from a patient with untreated primary urinary bladder carcinoma in 1973. RT112 cells are cultured as in Example 1. To establish tumors, RT112 cells suspended in Hanks' balanced salt solution (HBSS) containing 50% Matrigel (BD #356234) are injected subcutaneously into the right flank. A total of 5×10^6 cells in 100 μl are injected per animal.
Evaluation of antitumor activity: Treatments are initiated when the mean tumor volumes were approximately 180 mm^3 (14 days post tumor cells injection). Body weights and tumor volumes are recorded twice a week. Tumor volumes are measured with calipers and determined according to the formula length×diameter^2×π/6. In addition to presenting changes of tumor volumes over the course of treatments, antitumor activity is expressed as T/C % (mean change of tumor volume of treated animals/mean change of tumor volume of control animals)×100. Regressions (%) are calculated according to the formula ((mean tumor volume at end of treatment-mean tumor volume at start of treatment)/mean tumor volume at start of treatment)×100.
Preparation of Compound Solutions: Vehicle control is prepared by mixing 250 μl 1-methyl-2-pyrrolidone (“NMP”)(Fluka #69118), 750 μl Polyethylene glycol 300 (“PEG300”)(Fluka, #81162), 500 μl Solutol HS15 (BASF, #51633963) and 1000 μl water.
Statistics: For all tests, the level of significance is set at p<0.05. For tumor volumes, comparisons between treatment groups and vehicle control group are done using one-way ANOVA followed by Dunnett's test. The level of significance of body weight change within a group between the start and the end of the treatment period is determined using a paired t-test. Comparisons of delta body weighs between treatment and vehicle control groups are performed by a one-way ANOVA followed by a post hoc Dunnett's test. Calculations are performed using GraphPad Prism 6 for Windows (GraphPad Software Inc.).
Estimation of drug-drug interaction: an approximation of drug interactions is made using the method described by Clarke R., “Issues in experimental design and endpoint analysis in the study of experimental cytotoxic agents in vivo in breast cancer and other models”, Breast Cancer Res. Treat., 46, 255-78 (1997) (“Clark 1997”). This is applied to ΔTV (Mean tumor volume at the end of the treatment period—mean tumor volume at the beginning of the treatment period).
Upon performance of the foregoing experiment, the results are summarized in the table below: Ten millions RT-112 cells are injected subcutaneously into the right flank of female athymic nude mice on Day 0. On day 14, tumors are measured and mice are randomized into treatment groups with 8 mice per group. […] Statistics on Δ tumor volumes are performed with a one-way ANOVA, post hoc Dunnett's (*p<0.05 vs. vehicle controls) to compare treatment groups against the vehicle control group. For body weights, paired t tests between the weights at the beginning and the end of the treatment period are performed (*p<0.05).
A compound interaction analysis with the method described by Clarke 1997 is conducted. In accordance with this method, the experimental data is interpreted as follows: antagonism is predicted when the calculation AB/C>B/C×A/C, additive interaction is predicted when the calculation AB/C=B/C×A/C, and synergistic when AB/C<B/C×A/C.

pAKT (AKTpS473) = test: Immunohistochemistry of RT112 tumors: pAKT; format: in vivo, female Hsd: Athymic Nude-nu mice; conditions: 7 days, Compound A 50 mg/kg, Compound B 10 mg/kg, 2 hours after last treatment
Protocol: (§1) Animals: Experiments are performed in female Hsd: Athymic Nude-nu mice obtained from Harlan Cpb, Germany. Animals are from 8 to 14 weeks of age at treatment start and housed under Optimized Hygienic Conditions in Makrolon type III cages (max. 10 animals per cage) with free access to food and water
(§2) Establishment of RT112 tumors and compound treatments: The RT112 human urinary bladder carcinoma cell line was initially derived from a patient with untreated primary urinary bladder carcinoma in 1973 (Marshall et al. 1977, Masters et al. 1986). RT112 cells are cultured as in Example 1. Tumor establishment is done as in Example 2. Treatments are initiated when the mean tumor volumes are approximately 240 mm^3 (20 days post tumor cells injection).
(§3) Dissection: 2 hours after the last treatment animals are anaesthetized by Forene inhalation narcosis and euthanized by cervical dislocation. Each tumor is dissected, is cut into two equal pieces and is processed for formalin-fixed paraffin embedded sectioning. […]
(§4) Slides are mounted on a Ventana Discovery XT immunostainer and are processed for automated IHC by using a ChromoMAP kit and an OmniMAP anti Rabbit polymer-based amplification system. […] Endogenous peroxidase activities were subsequently quenched by using the ready to use solution from the ChromoMAP kit. […]

pErk1/2 (pMAPK) = test: Immunohistochemistry of RT112 tumors: pErk1/2 (pMAPK); format: in vivo, female Hsd: Athymic Nude-nu mice; conditions: 7 days, Compound A 50 mg/kg, Compound B 10 mg/kg, 2 hours after last treatment
Protocol: as §1, §2, §3, §4

[2] = tested on: FGFR kinase receptors 1-4 (FGFR1, FGFR2, FGFR3, and FGFR4); conditions: cited from earlier work
[3] = Compound A 50 mg/kg, Compound B 10 mg/kg, p.o., q24 h, 14 days

SMILES | Mean change of tumor volume [1] | % change of body weight [1, 3] [%] | Regression (%) [1, 3] | Survival (survivors/total) [1, 3] | Mean change of body weight (g ± SEM) ([1]; Compound A 50 mg/kg, Compound B 10 mg/kg, p.o., q24 h, 14 days, *p<0.05 paired t test) [g] | Final Tumor Volume [1] | inhibition of pAKT (immunohistochemistry) (pAKT (AKTpS473)) | T/C (%) (change in tumor volume, treated vs vehicle) ([1]; 10 mg/kg p.o. q24 h, 14 days, non-statistically significant) | T/C (%) [1, 3] [%] | Mean change of tumor volume (mm^3 ± SEM) ([1]; Compound A 50 mg/kg, Compound B 10 mg/kg, p.o., q24 h, 14 days, *p<0.05 vs vehicle) [mm^3] | ratio to vehicle control (B/C, A/C, AB/C) ([1]; based on Final Tumor Volume) | ratio to vehicle control (B/C, A/C, AB/C) ([1]; based on Mean change of tumor volume) | inhibition of pErk1/2 (pMAPK) (immunohistochemistry) (pErk1/2 (pMAPK)) | selectivity for FGFR kinase receptors 1-4 [2]
Cc1nc(NC(=O)N2CCC[C@H]2C(N)=O)sc1-c1ccnc(C(C)(C)C(F)(F)F)c1 [Compound A, (S)-Pyrrolidine-1,2-dicarboxylic acid 2-amide 1-({4-methyl-5-[2-(2,2,2-trifluoro-1,1-dimethyl-ethyl)-pyridin-4-yl]-thiazol-2-yl}-amide)] | −2 | −0.8 | 1.1% and −1.1% | 8/8 | -0.2 ± 0.4 | 179.4 | strongly inhibits; also recorded: significantly inhibits | – | – | – | – | – | – | –
CCN1CCN(c2ccc(Nc3cc(N(C)C(=O)Nc4c(Cl)c(OC)cc(OC)c4Cl)ncn3)cc2)CC1 [Compound B, 3-(2,6-dichloro-3,5-dimethoxy-phenyl)-1-{6-[4-(4-ethylpiperazin-1-l)-phenylamino]-pyrimidin-4-yl}-1-methyl-urea] | 145.6 | – | – | 8/8 | – | 327.2 | – | 54.4 | 54.4 | 145.6 ± 66.5 | 0.728 | 0.544 | strongly inhibits; also recorded: significantly inhibits | highly selective
